Data reported in patent publication US20230021669A1, “TRICYCLIC COMPOUND, AND PREPARATION METHOD THEREFOR AND MEDICAL USE THEREOF” (The National Institutes of Pharmaceutical R&D Co., Ltd., priority 2019, published 2023).

Columns and labels:
[1] = Determination of aldehyde capture rate (nonenal as model aldehyde, HPLC quantification); conditions: for Capture rate (slope of the capture curve per unit time): higher absolute value of the slope = higher capture rate; for Aldehyde consumption (100%): nonenal 0.025 mM, compound 0.05 mM, room temperature
Experimental: In the aldehyde capture test disclosed in the present invention, the stable lipid metabolite, nonenal, was used as the model aldehyde to react with the compound of the Example. The specific protocol was as follows.
0.05 mM of the compounds of the Examples of the present invention were precisely weighed respectively and dissolved in 1.2 mL of a mixed solution (v/v=1:1) of triolein (Aladdin, G105172-5g) and linoleic acid (Aladdin, L100442-25g), respectively. 2.5 mL of PBS (Solarbio) solution containing 20% Captisol® (Aladdin, C125030-25g) was added, and the solution was stirred at room temperature overnight. After the example compound was completely dissolved, 0.025 mM nonenal (Sigma, 255653-5G) was added, and the solution was stirred vigorously at room temperature. 200 μL of the sample was added to 800 μL of acetonitrile (Fisher, A995) at 0, 45, 90, 180, 225 and 465 minutes, respectively. The solution was mixed vigorously by vortex for 2 minutes, and centrifuged at a low speed of 1000 r/min for 3 minutes. The supernatant was transferred to an injection vial. The nonenal in the reaction mixture was analyzed quantitatively by high performance liquid chromatography. The adduct resulted from the example compound of the present invention and nonenal was analyzed qualitatively by high performance liquid chromatography-mass spectrometry.
In the developed detection method, the retention time of the model aldehyde nonenal was 2.42 minutes.

[2] = system: C48/80-induced allergic conjunctivitis (Wistar rats); experiment: Therapeutic effect in C48/80-induced allergic conjunctivitis animal model; format: in vivo, rat; conditions: female Wistar rats, C48/80 on cornea; 10 μL per eye 10 minutes after stimulation; examined 20 minutes after administration
Excerpt: C48/80 is a polymer formed by the condensation of N-methyl-p-methoxyphenethylamine with formaldehyde, which acts directly on G protein and induces mast cell degranulation. After degranulation, the mast cell releases active substances such as histamine and kinin, which can cause acute type I allergic reactions such as telangiectasia and enhanced permeability. It can cause allergic conjunctivitis if applied topically to the ocular surface.
Female Wistar rats were used as the research subjects. Wistar rats (Vital River) were randomly divided into groups (5 animals per group, a total of 10 eyes). The groups are as follows: normal control group, model control group, positive drug group, and example administration group. The inflammation model was established in these groups except for the normal control group. Emedastine Difumarate Eye Drops (Emadine®, Alcon, H20181192) was used as the positive drug. Model establishment, administration and evaluation processes are as follows. […]
After 10 minutes of stimulation, different drug treatments were carried out according to the group settings. […] The clinical score was evaluated individually on the eyes of each animal according to the McDonald-Shadduck scoring system (GB/T 28538-2012).

[3] = system: noninfectious uveitis animal model (lewis rats); experiment: Therapeutic effect in lipopolysaccharide-induced noninfectious uveitis animal model; format: in vivo, rat
Experimental: Female lewis rats were used as the research subjects. Lewis rats (Vital River) were randomly divided into groups (4 animals per group, a total of 8 eyes). The groups are as follows: normal control group, model control group, and example administration group. The inflammation model was established in these groups except for the normal control group.
(2) Formulation of drug solution: 10 mg of the compound of Example 4 of the present invention was weighed and dissolved in 1 mL of the vehicle stock solution, and the resulting solution was made up to 2 mL with water for injection. The content of each substance is as follows: Na2HPO4.12H2O 0.83%, NaH2PO4.2H2O 0.017%, ρ-cyclodextrin 9.5%, PEG-400 5.0%, active compound 0.5%.
The animal model was a noninfectious uveitis animal model established by intraperitoneal injection of lipopolysaccharide (derived from Escherichia coli, 055:B5, Sigma, L2880-100MG, injection dose: 2 mg/kg). At the same time of modeling, drug administration was carried out according to the above grouping situation. The normal control group was administered with normal saline, the model control group was administered with blank vehicle, and the example administration group was administered with the eye drops formulated above. The drug was administered by eye instillation to both eyes of each animal, and the eye instillation dose was 20 μL/eye. After the completion of eye instillation, the eyelids were closed for 20 seconds to prevent the loss of the drug. The administration was repeated at 3, 6 and 23 hours after modeling. […] The ocular inflammation of the animals in each group was examined with a slit lamp microscope (Jiangxi Jiangfeng, LYL-S), and evaluated according to the McDonald-Shadduck scoring system (GB/T 28538-2012).
The animals were sacrificed, and the bilateral eyeballs were enucleated. […] Quantitative analysis of total protein in aqueous humor was performed on the supernatant by a BCA protein quantification kit (Beyotime, P0010).

SMILES | Capture rate (slope of the capture curve per unit time) ([1]; 225 minutes) | Aldehyde consumption (100%) ([1]; 225 minutes) | Capture rate (slope of the capture curve per unit time) ([1]; 465 minutes) | Aldehyde consumption (100%) ([1]; 465 minutes) | Therapeutic effect on allergic conjunctivitis (McDonald-Shadduck clinical score, FIG. 2) [2] | Protein concentration in aqueous humor ([3]; female lewis rats, LPS 2 mg/kg i.p., 0.5% eye drops 20 μL/eye at 0, 3, 6, 23 h, 24 hours after modeling, BCA, mean ± standard deviation) | Ocular score (McDonald-Shadduck scoring system) ([3]; female lewis rats, LPS 2 mg/kg i.p., 0.5% eye drops 20 μL/eye at 0, 3, 6, 23 h, 24 hours after modeling, mean ± standard deviation) | Therapeutic effect in the ocular inflammation animal model (score and aqueous humor protein, in words) ([3]; lewis rats, LPS-induced uveitis, eye drops)
CC(C)(O)c1nc2cc3c(cc2cc1N)OCO3 [Example 1, 2-(7-amino-[1,3]dioxolo[4,5-g]quinolin-6-yl)propan-2-ol] | −0.05 | 10.73% | −0.04 | 18.43% |  |  |  | 
Cc1nc2cc3nc(C(C)(C)O)c(N)cc3cc2o1 [Example 2, 2-(7-amino-2-methyloxazolo[5,4-g]quinolin-6-yl)propan-2-ol] | −0.06 | 11.99% | −0.03 | 12.11% |  |  |  | 
CC(C)(O)c1nc2cc3nc(N4CCOCC4)oc3cc2cc1N [Example 3, 2-(7-amino-2-morpholinooxazolo[5,4-g]quinolin-6-yl)propan-2-ol] | −0.17 | 35.38% | −0.10 | 43.67% |  |  |  | 
CC(C)(O)c1cc2cc3c(cc2cc1N)OCO3 [Example 4, 2-(7-aminonaphtho[2,3-d][1,3]dioxol-6-yl)propan-2-ol] | −0.25 | 52.65% | −0.14 | 66.62% | good therapeutic effect | 840.6 ± 449.7 µg/mL | 8.4 ± 2.8 | showing a therapeutic effect
Cn1cnc2cc3cc(N)c(C(C)(C)O)nc3cc21 [Example 5, 2-(7-amino-3-methyl-3H-imidazo[4,5-g]quinolin-6-yl)propan-2-ol] | −0.08 | 20.02% | −0.08 | 36.01% |  |  |  | 
CC(C)(O)c1cc2cc3c(cc2cc1N)OCCO3 [Example 6, 2-(8-amino-2,3-dihydronaphtho[2,3-b][1,4]dioxin-7-yl)propan-2-ol] | −0.07 | 16.48% | −0.05 | 22.01% |  |  |  | 
CC(C)(O)c1nc2cc3oc(N4CCOCC4)nc3cc2cc1N [Example 7, 2-(7-amino-2-morpholinooxazolo[4,5-g]quinolin-6-yl)propan-2-ol] | −0.03 | 7.12% | −0.01 | 8.34% |  |  |  | 
CC(C)(O)c1cc2cc3c(cc2cc1N)OCCOCCOCCO3 [Example 8, 2-(14-amino-2,3,5,6,8,9-hexahydronaphtho[2,3-b][1,4,7,10]tetraoxacyclododecin-13-yl) propan-2-ol] | −0.07 | 19.78% | −0.04 | 19.82% |  |  |  | 
Nc1cc2cc3c(cc2cc1C1(O)CC1)OCO3 [Example 9, 1-(7-aminonaphtho[2,3-d][1,3]dioxol-6-yl)cyclopropan-1-ol] | −0.06 | 15.43% | −0.03 | 16.60% |  |  |  | 
